# PMC5554220, “A Novel Aldosterone Antagonist Limits Renal Injury in 5/6 Nephrectomy” (Scientific Reports, 2017)
# What was measured:
# [1] = system: rats with 5/6 renal ablation (Nx); assay: Protocol 2 (late treatment), 5/6 renal ablation (Nx); format: in vivo, male Munich-Wistar rats; conditions: Ly as an add-on to L, Day 150
# Excerpt: One-hundred forty-five adult male Munich-Wistar rats, obtained from a local facility at the Faculty of Medicine, University of São Paulo, weighing between 220 and 250 g, were used in this study. All experimental procedures were approved by the local Research Ethics Committee (Comissão de Ética para Análise de Projetos de Pesquisa do Hospital das Clínicas da Faculdade de Medicina da Universidade de São Paulo, CAPPesq, process n° 0905/09), and carried out following strictly our institutional guidelines and current international standards for manipulation and care of laboratory animals. Body weights and general conditions were assessed daily. Five-sixths renal ablation (Nx) was performed as a single-step procedure under anesthesia with ketamine 50 mg/kg and xylazine 10 mg/kg im. After ventral laparotomy, the right kidney was excised and two or three branches of the left renal artery were ligated, so as to promote infarction of two-thirds of the left kidney. The operation was invariably well tolerated. Sham-operated rats underwent anesthesia and manipulation of the renal pedicles without removal of renal mass. After surgery, rats received enrofloxacin and, upon recovery, had free access to tap water and regular rodent chow containing 0.5 Na and 22% protein (Nuvital Labs, Curitiba, Brazil), and were kept at 23 ± 1 °C and 60 ± 5% relative air humidity, under an artificial 12–12 hour light/dark cycle. Rats were then treated following two different experimental protocols (described later).
# In Protocol 2, adult male Munich-Wistar rats were subjected to Nx as described earlier, and left untreated for two months. At this time, TCP and UalbV were assessed as described earlier. Rats with TCP ≤ 170 mmHg or UalbV ≤ 40 mg/day were excluded from the study. The remaining […] Nx rats were divided into four experimental groups: Nx + V (N = 14), untreated Nx rats; Nx + L (N = 15), receiving oral L, 50 mg/kg in drinking water; Nx + L + Eple (N = 14), receiving L and Eple (N = 14), 150 mg/kg/day; and Nx + L + Ly (N = 14), receiving L and Ly (20 mg/kg/day) as described before. A group of S rats (N = 16) was also included. All groups were followed for 90 days after treatments were started (150 days after nephrectomy), with monthly measurement of TCP and UalbV. At the end of this period, rats were anesthetized, blood was collected, and the renal tissue was perfusion-fixed and prepared for histomorphometric and immunohistochemical examination in the same manner as for Protocol 1.
# Histomorphometric analysis was performed blindly by two independent observers. The extent of glomerular injury was estimated, in PAS-stained sections, by determining the percentage of glomeruli with sclerotic lesions. The fraction of the renal cortical area occupied by interstitial tissue (%INT) was estimated in 25 consecutive microscopic fields of Masson-stained sections by a point-counting technique, at a final magnification of 200X, under a 144-point grid.
# Immunohistochemistry was performed on 4-μm-thick sections, mounted on glass slides precoated with 2% silane. Sections were deparaffinized and rehydrated by conventional techniques, then heated in citrate buffer for antigen retrieval and incubated overnight with the primary antibody at 4 °C (no antibody in negative control experiments). Primary antibodies used were: monoclonal mouse anti-rat ED-1 (Serotec, Oxford, UK); polyclonal rabbit anti-human AngII (Peninsula Laboratories, San Carlos, CA); and polyclonal rabbit anti-collagen I (Abcam, Cambridge, UK).
# For ED-1 detection, sections were preincubated with 5% normal rabbit serum to prevent nonspecific binding, then incubated overnight at 4 °C with the primary antibody diluted in BSA at 1%. […]
# [2] = target: T1, human glucocorticoid receptor (hGR) (Homo sapiens, UniProt P04150); assay: Radioligand binding, hGR expressed in HEK293 cells
# T1 construct: expressed in transfected cells; host or cells: HEK293 cells
# T1 sequence (P04150 1-777): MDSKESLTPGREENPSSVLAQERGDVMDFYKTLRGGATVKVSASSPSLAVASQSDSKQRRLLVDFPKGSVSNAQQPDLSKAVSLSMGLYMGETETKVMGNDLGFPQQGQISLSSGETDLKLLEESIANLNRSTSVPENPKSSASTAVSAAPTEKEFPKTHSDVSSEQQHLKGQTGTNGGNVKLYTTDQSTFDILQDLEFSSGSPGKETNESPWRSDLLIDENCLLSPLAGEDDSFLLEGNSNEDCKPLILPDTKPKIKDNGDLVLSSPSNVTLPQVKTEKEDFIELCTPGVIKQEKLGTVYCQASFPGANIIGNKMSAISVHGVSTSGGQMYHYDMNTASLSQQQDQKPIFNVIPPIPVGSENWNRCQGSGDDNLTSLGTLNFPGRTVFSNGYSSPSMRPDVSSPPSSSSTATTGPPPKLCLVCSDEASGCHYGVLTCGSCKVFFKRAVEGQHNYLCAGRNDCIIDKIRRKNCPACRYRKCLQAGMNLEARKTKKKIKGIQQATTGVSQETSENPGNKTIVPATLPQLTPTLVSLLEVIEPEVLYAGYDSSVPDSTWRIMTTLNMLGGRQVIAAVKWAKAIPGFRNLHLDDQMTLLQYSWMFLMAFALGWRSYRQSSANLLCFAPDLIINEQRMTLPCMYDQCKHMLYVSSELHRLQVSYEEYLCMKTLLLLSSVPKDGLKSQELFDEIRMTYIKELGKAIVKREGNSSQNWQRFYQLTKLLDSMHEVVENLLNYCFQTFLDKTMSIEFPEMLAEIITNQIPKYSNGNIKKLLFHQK
# Experimental: Affinity of ligands to the soluble receptor was determined using vacuum filtration methods, preparing soluble receptors in 96-well Falcon polystyrene plates (BD Biosciences, Bedford, MA) in a total volume of 250 μl. The hMR Sf9 lysate (approximately 20–25 μg protein in 20 μl) was incubated in the absence or presence of competing ligands with 10 μl of [1,2,6,7-3H] […] Binding studies for ligands for hPR and hAR were determined using [1,2,6,7-3H(N)] Progesterone (specific activity 103 Ci/mmol, at a final concentration 0.5 nM; NET381, NEN/Perkin Elmer Life Sciences, Boston, MA) and [17α-methyl-3H] Mibolerone, an enzymaticaly stable analog of testosterone (specific activity 76.8 Ci/mmol, final concentration 0.3 nM; NET919, NEN), respectively. Specific binding of 3H-progesterone for hPR and 3H-mibolerone for hAR was determined in the presence and absence of 1 μM mifepristone. Inhibition constants (Ki), were determined either from the Cheng-Prusoff equation[32], or directly using non-linear regression curve fitting to a three-parameter one-site competitive equation. Ki values obtained from individual concentration response curves were reported as the mean ± SEM. Protein was measured using colorimetric detection and quantification of bicinchoninic acid (BCA Protein Assay, Pierce, Rockford, IL). Cos-7L cells were cotransfected with expression vectors and a reporter plasmid responsive to all 3 nuclear hormone receptors. pBluescript II SK (+) (Stratagene, San Diego, CA) was included as a source of carrier DNA. The number of repetitions of full concentration response curves (n) represents values from at least two independent experiments for each condition. Concentration response curves were analyzed statistically using a four-parameter logistic equation (Hill equation for sigmoid curves). Similar methodology was adopted for the human glucocorticoid receptor (hGR) expressed in HEK293 cells.
compound,measurement,setting,value
O=c1[nH]c2ccc(/C=C3\c4ccc(F)cc4COc4cc(F)ccc43)cc2[nH]1 [Ly],Interstitial expansion (cortical interstitial area),[1],reduced to levels significantly lower than in the Nx + V group
same,Ki,"[2]; hGR expressed in HEK293 cells, read-out: Mean Ki ± SEM hGR*",112 ± 18 nM
same,Ratio of Ki's hGR*: hMR,[2]; selectivity,70
